In EP0561237A2, “Enantiomer, (-)-N-(2-ethoxyphenyl)-N'-(1,2,2-trimethylpropyl)-2-nitromethene-1,1-diamine, process for its preparation and its use” (BAYER AG, priority 1992, dated 1993):
Where two headings read alike, the source gives them in different places. One block for each molecule: values may come before it.

Key:
[1] = test system: Gefäßmuskulatur; details: described in DE 32 32 462; cited from earlier work
[2] = test system: Neuronen; assay: Effect (hyperpolarising activity) on neurons; assay type: cell-based, Ratten
[3] = test system: A10-Zellen; assay: Activity on vascular tissue (A10 cells); assay type: cell-based; details: read-out: IC₅₀
[4] = test system: ATP-abhängige K-Kanäle; assay: Glyburide sensitivity of the hyperpolarising effect; assay type: cell-based; details: with glyburide
[5] = test system: MIPP-N1E-115-Neuroblastomlinie; assay: Hyperpolarising activity in neuroblastoma cell line; assay type: cell-based; details: for hyperpolarisierende Wirkung: MIPP-N1E-115 neuroblastoma line
[6] = test system: Neuronen vom Typ der Pyramidenzellen aus dem Hippocampus; assay: Neuroprotection on single neurons of the central nervous system; assay type: cell-based, Ratten; details: single neurons from rat CNS; inhibition of raised calcium during long-term depolarisation
[7] = test system: Zellinie des glatten Muskels; assay: Activity in a smooth muscle cell line; assay type: cell-based

Structure (SMILES): CCOc1ccccc1NC(=C[N+](=O)[O-])NC(C)C(C)(C)C (racemic) [racemische Gemisch, N-(2-Ethoxyphenyl)-N'-(1,2,2-trimethylpropyl)-2-nitroethen-1,1-diamin]
- Wirkung auf die Gefäßmuskulatur [1]: eine Wirkung auf die Gefäßmuskulatur ausübt

- EC50 ([2]; Neuron, in neurons, read-out: EC₅₀-Wert): 500 nM
- IC50 ([3]; listed as (+)-Enantiomer): 15 nM
Structure (SMILES): CCOc1ccccc1NC(=C[N+](=O)[O-])NC(C)C(C)(C)C (single isomer, unassigned; (+)) [Beispiel 2, (+)-N-(2-Ethoxyphenyl)-N'-(1,2,2-trimethylpropyl)-2-nitroethen-1,1-diamin]
- Blockierung der Wirkung des (-)-Enantiomers auf Neuronen ([2]; (+)-enantiomer 1 µM against effect of 5 pM (-)-enantiomer): blockiert
- Konzentration, bei der wirksam, als Vielfaches der Konzentration des (-)-Enantiomers ([2]; multiple of the 5 pM concentration of the (-)-enantiomer in neurons): > 10 000 -fach
- hyperpolarisierende Wirkung, Blockierbarkeit durch Glyburide ([4]; listed as (+)-Enantiomer): durch Glyburide inhibierbares Hyperpolarisierungsmittel
- hyperpolarisierende Wirkung ([5]; listed as (+)-Enantiomer): nicht auf das (+)-Enantiomer anspricht

- IC50 ([2]; Neuron, in neurons, read-out: IC₅₀-Wert): 0.005 nM
- IC50 ([3]; listed as (-)-Enantiomer): 250 nM
- EC50 ([5]; Neuroblastoma cell, newly found hyperpolarising activity not blocked by glyburide, read-out: EC₅₀): < 0.01 nM
Structure (SMILES): CCOc1ccccc1NC(=C[N+](=O)[O-])NC(C)C(C)(C)C (single isomer, unassigned; (-)) [Beispiel 1, (-)-N-(2-Ethoxyphenyl)-N'-(1,2,2-trimethylpropyl)-2-nitroethen-1,1-diamin]
- Neuroprotektion [6]: bemerkenswerte Neuroprotektion
- hyperpolarisierende Wirkung, Blockierbarkeit durch Glyburide ([4]; listed as (-)-Enantiomer): durch Glyburide nicht blockiert
- hyperpolarisierende Wirkung ([5]; listed as (-)-Enantiomer): wirksam
- Wirksamkeit [7]: unwirksam
